Biological target: cAMP and cAMP-inhibited cGMP 3',5'-cyclic phosphodiesterase 10A (Homo sapiens, UniProt Q9Y233)
Assay: PDE10 Fluorescence Polarization (FP) Assay: The fluorescence polarization assay for cyclic nucleotide phosphodiesterases was performed using an IMAP FP kit supplied by Molecular Devices, Sunnyvale, Calif. (product # R8139). IMAPU technology has been applied previously to phosphodiesterase assays (Huang, W., et al., J. Biomol Screen, 2002, 7: 215). Assays were performed at room temperature in 384-well microtiter plates with an incubation volume of 20.2 uL. Solutions of test compounds were prepared in DMSO and serially diluted with DMSO to yield 8 uL of each of 10 solutions differing by 3-fold in concentration, at 32 serial dilutions per plate.

Sequence of cAMP and cAMP-inhibited cGMP 3',5'-cyclic phosphodiesterase 10A (Q9Y233 whole entry): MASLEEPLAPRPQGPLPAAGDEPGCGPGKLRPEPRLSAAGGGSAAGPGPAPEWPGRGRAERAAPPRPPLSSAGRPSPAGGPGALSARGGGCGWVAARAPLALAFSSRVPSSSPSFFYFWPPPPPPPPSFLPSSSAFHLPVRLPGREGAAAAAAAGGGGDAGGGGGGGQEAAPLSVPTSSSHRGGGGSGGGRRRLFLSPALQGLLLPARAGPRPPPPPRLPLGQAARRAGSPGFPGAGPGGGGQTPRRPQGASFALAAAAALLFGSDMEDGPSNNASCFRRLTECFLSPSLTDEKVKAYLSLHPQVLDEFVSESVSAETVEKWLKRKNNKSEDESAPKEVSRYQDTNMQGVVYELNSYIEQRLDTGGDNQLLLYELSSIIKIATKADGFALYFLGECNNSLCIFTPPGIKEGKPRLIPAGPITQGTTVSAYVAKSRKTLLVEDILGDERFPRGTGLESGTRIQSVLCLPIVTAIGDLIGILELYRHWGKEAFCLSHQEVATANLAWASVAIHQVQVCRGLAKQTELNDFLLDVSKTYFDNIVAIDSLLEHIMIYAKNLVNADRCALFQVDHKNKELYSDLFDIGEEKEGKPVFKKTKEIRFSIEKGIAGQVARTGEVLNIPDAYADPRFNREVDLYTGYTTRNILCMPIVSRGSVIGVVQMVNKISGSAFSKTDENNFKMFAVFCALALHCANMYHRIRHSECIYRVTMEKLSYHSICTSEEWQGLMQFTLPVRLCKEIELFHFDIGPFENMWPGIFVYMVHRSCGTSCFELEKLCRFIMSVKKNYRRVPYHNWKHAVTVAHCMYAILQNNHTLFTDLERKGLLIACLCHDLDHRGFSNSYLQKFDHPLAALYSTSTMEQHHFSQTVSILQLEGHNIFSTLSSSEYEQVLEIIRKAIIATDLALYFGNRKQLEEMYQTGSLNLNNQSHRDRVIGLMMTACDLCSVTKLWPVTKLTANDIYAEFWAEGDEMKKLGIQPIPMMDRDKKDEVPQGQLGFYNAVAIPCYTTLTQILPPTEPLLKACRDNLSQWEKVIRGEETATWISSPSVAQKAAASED

| Ki | SMILES |
| --- | --- |
| 0.041 nM | Cc1ncc(-c2cc(F)c(=O)n(C)c2)c(OC[C@H]2C[C@@H]2c2ccc3ccccc3n2)n1 |
| 3.48 nM | Cc1ccc([C@H]2C[C@@H]2COc2nc(C)ncc2-c2ccc(=O)n(CC#N)c2)nc1 |

Reference: ChEMBL document CHEMBL3886562, “Substituted pyridone derivatives as PDE10 inhibitors” (2016)
